Source: patent publication US20230085307A1, “PYRIDAZINONE COMPOUND AND HERBICIDE” (NISSAN CHEMICAL CORPORATION, priority 2019, published 2023)

Assays:
wheat [1] = test: Test Example 5: effect on crop by foliage application, plastic box (Table 20, symbol e); format: in vivo; conditions: 320 g/ha, 3 weeks after application
Source text: (§1) [Test Example 5] Herbicidal Effect Test by Foliage Application
(§2) Sterilized diluvial soil was placed in a plastic box having a length of 21 cm, a width of 13 cm, and a depth of 7 cm. The seeds of each of southern crabgrass, green foxtail, barnyard grass, wild oat, blackgrass, Italian ryegrass, windgrass, velvetleaf, redroot pigweed, lambsquarters, chickweed, false cleavers, persian speedwell, corn, soybean, rice, wheat, beet, and rapeseed were sowed in a spot-like manner and covered with the soil having a thickness of about 1.5 cm. Thereafter, the plants were grown in a greenhouse at 25° C. to 30° C. After 14-day growth of the plants, the emulsion agent of the compound of the present invention prepared according to Formulation Example 2 was diluted with water so as to achieve a predetermined herbicide amount, and the diluted emulsion agent was uniformly applied to a foliage part with a small-sized spray. Three weeks after the herbicide application, the effect of the herbicide on each plant was evaluated according to the criteria of Test Example 1.

rapeseed [2] = test: Test Example 4: effect on crop by soil treatment (Table 19, symbol g); format: in vivo; conditions: 320 g/ha
Source text: (§3) [Test Example 4] Herbicidal Effect Test by Soil Treatment
as §2, with “Subsequently,” for “Thereafter, the plants were grown in a greenhouse at 25° C. to 30° C. After 14-day growth of the plants,”, “the surface of the soil” for “a foliage part”, “spray. The plastic box was placed in a greenhouse at 25° C. to 30° C. for growth of the plants.” for “spray.”

wild oat [3] = test: Test Example 4: herbicidal effect by soil treatment (Table 19, symbol I); format: in vivo, wild oat (Avena fatua); conditions: 320 g/ha
In short: (§4)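 Herbicidal effect was rated 3 weeks after treatment, using the scoring criteria of an earlier test. The compound, formulated as an emulsion and diluted in water to a set herbicide amount, had been sprayed uniformly on soil over freshly sown seeds. Growth took place in a greenhouse at 25° C. to 30° C.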

barnyard grass [4] = test: Test Example 4: herbicidal effect by soil treatment (Table 19, symbol H); format: in vivo, barnyard grass (Echinochloa crus-galli); conditions: 320 g/ha
In short: as §4

chickweed = test: Test Example 4: herbicidal effect by soil treatment (Table 19, symbol P); format: in vivo, common chickweed (Stellaria media); conditions: 320 g/ha
In short: as §4

windgrass [5] = test: Test Example 5: herbicidal effect by foliage application, plastic box (Table 20, symbol L); format: in vivo, windgrass (Apera spica-venti); conditions: foliage application, 320 g/ha, 3 weeks after application
In short: (§5)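 Foliar spray test: emulsion formulation diluted in water to a set application rate, sprayed onto 14-day-old plants raised in diluvial soil at 25° C to 30° C under glass. Both herbicidal effect and crop effect rated visually three weeks later.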

beet [6] = test: Test Example 5: effect on crop by foliage application, plastic box (Table 20, symbol f); format: in vivo; conditions: 320 g/ha, 3 weeks after application
Source text: as §1, §2

redroot pigweed = test: Test Example 4: herbicidal effect by soil treatment (Table 19, symbol N); format: in vivo, redroot pigweed (Amaranthus retroflexus); conditions: 320 g/ha
In short: as §4

blackgrass [7] = test: Test Example 5: herbicidal effect by foliage application, plastic box (Table 20, symbol J); format: in vivo, blackgrass (Alopecurus myosuroides); conditions: foliage application, 320 g/ha, 3 weeks after application
In short: as §5

directly sowed rice = test: Test Example 3: effect on crop by foliage application, Wagner pot (Table 18, symbol b); format: in vivo; conditions: 320 g/ha
In short: (§6)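 Plants were sown in alluvial soil held under 0.1–0.5 cm standing water and grown 14 days in a greenhouse at 25–30 °C. An emulsifiable formulation, water-diluted to the set dose, was then sprayed onto the foliage, and effects were scored three weeks later using previously defined criteria.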

velvetleaf [8] = test: Test Example 5: herbicidal effect by foliage application, plastic box (Table 20, symbol M); format: in vivo, velvetleaf (Abutilon theophrasti); conditions: foliage application, 320 g/ha, 3 weeks after application
In short: as §5

wheat [9] = test: Test Example 4: effect on crop by soil treatment (Table 19, symbol e); format: in vivo; conditions: 320 g/ha
Source text: as §3
as §2, with “Subsequently,” for “Thereafter, the plants were grown in a greenhouse at 25° C. to 30° C. After 14-day growth of the plants,”, “the surface of the soil” for “a foliage part”, “spray. The plastic box was placed in a greenhouse at 25° C. to 30° C. for growth of the plants.” for “spray.”

green foxtail [10] = test: Test Example 5: herbicidal effect by foliage application, plastic box (Table 20, symbol G); format: in vivo, green foxtail (Setaria viridis); conditions: foliage application, 320 g/ha, 3 weeks after application
In short: as §5

lambsquarters [11] = test: Test Example 5: herbicidal effect by foliage application, plastic box (Table 20, symbol O); format: in vivo, lambsquarters (Chenopodium album); conditions: foliage application, 320 g/ha, 3 weeks after application
In short: as §5

wild oat [12] = test: Test Example 5: herbicidal effect by foliage application, plastic box (Table 20, symbol I); format: in vivo, wild oat (Avena fatua); conditions: foliage application, 320 g/ha, 3 weeks after application
In short: as §5

persian speedwell [13] = test: Test Example 4: herbicidal effect by soil treatment (Table 19, symbol R); format: in vivo, Persian speedwell (Veronica persica); conditions: 320 g/ha
In short: as §4

green foxtail [14] = test: Test Example 4: herbicidal effect by soil treatment (Table 19, symbol G); format: in vivo, green foxtail (Setaria viridis); conditions: 320 g/ha
In short: as §4

Italian ryegrass [15] = test: Test Example 5: herbicidal effect by foliage application, plastic box (Table 20, symbol K); format: in vivo, Italian ryegrass (Lolium multiflorum); conditions: foliage application, 320 g/ha, 3 weeks after application
In short: as §5

barnyard grass [16] = test: Test Example 5: herbicidal effect by foliage application, plastic box (Table 20, symbol H); format: in vivo, barnyard grass (Echinochloa crus-galli); conditions: foliage application, 320 g/ha, 3 weeks after application
In short: as §5

soybean [17] = test: Test Example 4: effect on crop by soil treatment (Table 19, symbol d); format: in vivo; conditions: 320 g/ha
Source text: as §3
as §2, with “Subsequently,” for “Thereafter, the plants were grown in a greenhouse at 25° C. to 30° C. After 14-day growth of the plants,”, “the surface of the soil” for “a foliage part”, “spray. The plastic box was placed in a greenhouse at 25° C. to 30° C. for growth of the plants.” for “spray.”

corn [18] = test: Test Example 4: effect on crop by soil treatment (Table 19, symbol c); format: in vivo; conditions: 320 g/ha
Source text: as §3
as §2, with “Subsequently,” for “Thereafter, the plants were grown in a greenhouse at 25° C. to 30° C. After 14-day growth of the plants,”, “the surface of the soil” for “a foliage part”, “spray. The plastic box was placed in a greenhouse at 25° C. to 30° C. for growth of the plants.” for “spray.”

windgrass [19] = test: Test Example 4: herbicidal effect by soil treatment (Table 19, symbol L); format: in vivo, windgrass (Apera spica-venti); conditions: 320 g/ha
In short: as §4

blackgrass [20] = test: Test Example 4: herbicidal effect by soil treatment (Table 19, symbol J); format: in vivo, blackgrass (Alopecurus myosuroides); conditions: 320 g/ha
In short: as §4

southern crabgrass [21] = test: Test Example 4: herbicidal effect by soil treatment (Table 19, symbol F); format: in vivo, southern crabgrass (Digitaria ciliaris); conditions: 320 g/ha
In short: as §4

beet [22] = test: Test Example 4: effect on crop by soil treatment (Table 19, symbol f); format: in vivo; conditions: 320 g/ha
Source text: as §3
as §2, with “Subsequently,” for “Thereafter, the plants were grown in a greenhouse at 25° C. to 30° C. After 14-day growth of the plants,”, “the surface of the soil” for “a foliage part”, “spray. The plastic box was placed in a greenhouse at 25° C. to 30° C. for growth of the plants.” for “spray.”

Italian ryegrass [23] = test: Test Example 4: herbicidal effect by soil treatment (Table 19, symbol K); format: in vivo, Italian ryegrass (Lolium multiflorum); conditions: 320 g/ha
In short: as §4

lambsquarters [24] = test: Test Example 4: herbicidal effect by soil treatment (Table 19, symbol O); format: in vivo, lambsquarters (Chenopodium album); conditions: 320 g/ha
In short: as §4

soybean [25] = test: Test Example 5: effect on crop by foliage application, plastic box (Table 20, symbol d); format: in vivo; conditions: 320 g/ha, 3 weeks after application
Source text: as §1, §2

rice flat sedge = test: Test Example 3: herbicidal effect by foliage application, Wagner pot (Table 18, symbol E); format: in vivo, rice flat sedge (Cyperus iria); conditions: 320 g/ha
In short: as §6

Chinese sprangletop = test: Test Example 3: herbicidal effect by foliage application, Wagner pot (Table 18, symbol D); format: in vivo, chinese sprangletop (Leptochloa chinensis); conditions: 320 g/ha
In short: as §6

rapeseed [26] = test: Test Example 5: effect on crop by foliage application, plastic box (Table 20, symbol g); format: in vivo; conditions: 320 g/ha, 3 weeks after application
Source text: as §1, §2

persian speedwell [27] = test: Test Example 5: herbicidal effect by foliage application, plastic box (Table 20, symbol R); format: in vivo, Persian speedwell (Veronica persica); conditions: foliage application, 320 g/ha, 3 weeks after application
In short: as §5

barnyard grass [28] = test: Test Example 3: herbicidal effect by foliage application, Wagner pot (Table 18, symbol H); format: in vivo, barnyard grass (Echinochloa crus-galli); conditions: 320 g/ha
In short: as §6

corn [29] = test: Test Example 5: effect on crop by foliage application, plastic box (Table 20, symbol c); format: in vivo; conditions: 320 g/ha, 3 weeks after application
Source text: as §1, §2

southern crabgrass [30] = test: Test Example 5: herbicidal effect by foliage application, plastic box (Table 20, symbol F); format: in vivo, southern crabgrass (Digitaria ciliaris); conditions: foliage application, 320 g/ha, 3 weeks after application
In short: as §5

velvetleaf [31] = test: Test Example 4: herbicidal effect by soil treatment (Table 19, symbol M); format: in vivo, velvetleaf (Abutilon theophrasti); conditions: 320 g/ha
In short: as §4

melting point: 164 to 165 °C
SMILES: Cc1nn(C)c(=O)c(-c2c(-c3ccc(OC(F)F)cc3)sc3ccc(F)cc23)c1O [Compound No. 2-042, 4-(2-(4-(difluoromethoxy)phenyl)-5-fluorobenzo[b]thiophen-3-yl)-5-hydroxy-2,6-dimethylpyridazin-3(2H)-one]
effect on wheat (e) (wheat [1]): 1 (Herbicidal rate of 5% or more and less than 20%)
effect rating on crop, g: rapeseed (rapeseed [2]): 5 (Herbicidal rate of 90% or more (almost completely withered))
herbicidal effect rating, I: wild oat (wild oat [3]): 0 (Herbicidal rate of 5% or less (almost no effect))
herbicidal effect rating, H: barnyard grass (barnyard grass [4]): 4 (Herbicidal rate of 70% or more and less than 90%)
herbicidal effect rating, P: chickweed (chickweed): 4 (Herbicidal rate of 70% or more and less than 90%)
effect on windgrass (L) (windgrass [5]): 5 (Herbicidal rate of 90% or more (almost completely withered))
effect on beet (f) (beet [6]): 5 (Herbicidal rate of 90% or more (almost completely withered))
herbicidal effect rating, N: redroot pigweed (redroot pigweed): 5 (Herbicidal rate of 90% or more (almost completely withered))
effect on blackgrass (J) (blackgrass [7]): 5 (Herbicidal rate of 90% or more (almost completely withered))
effect on crop b (directly sowed rice), rating 0-5 (directly sowed rice): 1 (Herbicidal rate of 5% or more and less than 20%)
effect on velvetleaf (M) (velvetleaf [8]): 5 (Herbicidal rate of 90% or more (almost completely withered))
effect rating on crop, e: wheat (wheat [9]): 0 (Herbicidal rate of 5% or less (almost no effect))
effect on green foxtail (G) (green foxtail [10]): 5 (Herbicidal rate of 90% or more (almost completely withered))
effect on lambsquarters (O) (lambsquarters [11]): 5 (Herbicidal rate of 90% or more (almost completely withered))
effect on wild oat (I) (wild oat [12]): 3 (Herbicidal rate of 40% or more and less than 70%)
herbicidal effect rating, R: persian speedwell (persian speedwell [13]): 5 (Herbicidal rate of 90% or more (almost completely withered))
herbicidal effect rating, G: green foxtail (green foxtail [14]): 5 (Herbicidal rate of 90% or more (almost completely withered))
effect on Italian ryegrass (K) (Italian ryegrass [15]): 5 (Herbicidal rate of 90% or more (almost completely withered))
effect on barnyard grass (H) (barnyard grass [16]): 5 (Herbicidal rate of 90% or more (almost completely withered))
effect rating on crop, d: soybean (soybean [17]): 0 (Herbicidal rate of 5% or less (almost no effect))
effect rating on crop, c: corn (corn [18]): 0 (Herbicidal rate of 5% or less (almost no effect))
herbicidal effect rating, L: windgrass (windgrass [19]): 3 (Herbicidal rate of 40% or more and less than 70%)
herbicidal effect rating, J: blackgrass (blackgrass [20]): 3 (Herbicidal rate of 40% or more and less than 70%)
herbicidal effect rating, F: southern crabgrass (southern crabgrass [21]): 3 (Herbicidal rate of 40% or more and less than 70%)
effect rating on crop, f: beet (beet [22]): 1 (Herbicidal rate of 5% or more and less than 20%)
herbicidal effect rating, K: Italian ryegrass (Italian ryegrass [23]): 5 (Herbicidal rate of 90% or more (almost completely withered))
herbicidal effect rating, O: lambsquarters (lambsquarters [24]): 5 (Herbicidal rate of 90% or more (almost completely withered))
effect on soybean (d) (soybean [25]): 3 (Herbicidal rate of 40% or more and less than 70%)
herbicidal effect on E (rice flat sedge), rating 0-5 (rice flat sedge): 5 (Herbicidal rate of 90% or more (almost completely withered))
herbicidal effect on D (Chinese sprangletop), rating 0-5 (Chinese sprangletop): 3 (Herbicidal rate of 40% or more and less than 70%)
effect on rapeseed (g) (rapeseed [26]): 5 (Herbicidal rate of 90% or more (almost completely withered))
effect on persian speedwell (R) (persian speedwell [27]): 5 (Herbicidal rate of 90% or more (almost completely withered))
herbicidal effect on H (barnyard grass), rating 0-5 (barnyard grass [28]): 5 (Herbicidal rate of 90% or more (almost completely withered))
effect on corn (c) (corn [29]): 0 (Herbicidal rate of 5% or less (almost no effect))
effect on southern crabgrass (F) (southern crabgrass [30]): 4 (Herbicidal rate of 70% or more and less than 90%)
herbicidal effect rating, M: velvetleaf (velvetleaf [31]): 5 (Herbicidal rate of 90% or more (almost completely withered))
